Reference: ChEMBL document CHEMBL6096629, “Indolo[3,2-c]isoquinoline Hydroxamic Acid Derivatives as Novel Orally Topoisomerase-Histone Deacetylase Dual Inhibitors for NSCLC Therapy” (J Med Chem, 2025)

Assays:
HCT-116 = assay: cells; details: Homo sapiens, HCT-116, 24 h
Description: Antiproliferative activity against human HCT-116 cells incubated for 24 hrs in presence of SAHA by MTT assay

NCI-H1975 [1] = assay: Inhibition of colony formation in human NCI-H1975 cells incubated for 24 hrs followed by re-culturing in fresh medium without compound measured after 14 days in presence of SAHA by crystal violet staining based analysis relative to control; type: functional
MDA-MB-231 [2] = assay: cells; type: functional, cell-based; details: Homo sapiens, MDA-MB-231, 24 h
MCF7 = assay: cells; details: Homo sapiens, MCF7, 24 h
Description: Antiproliferative activity against human MCF7 cells incubated for 24 hrs in presence of SAHA by MTT assay

MDA-MB-231 [3] = assay: cells; details: Homo sapiens, MDA-MB-231, 24 h
Description: Antiproliferative activity against human MDA-MB-231 cells incubated for 24 hrs in presence of SAHA by MTT assay

[4] = Toxicity BALB/c nude mouse xenografted with human NCI-H1975 cells assessed as body weight loss at 10 mg/kg, ip bid in presence of SAHA treated for 21 days (Rvb > 11.5 %); type: organism-based; details: in vivo, 504 h, time 21 day
NCI-H1975 [5] = assay: Induction of cell cycle arrest in human NCI-H1975 cells assessed as accumulation at G2/M phase incubated for 48 hrs in presence of SAHA by PI staining based flow cytometry relative to control; type: functional
NCI-H1975 [6] = assay: Induction of apoptosis in human NCI-H1975 cells incubated for 24 hrs in presence of SAHA by Annexin V-FITC/PI staining based flow cytometry relative to control; type: functional
NCI-H1975 [7] = assay: Antitumor activity against human NCI-H1975 cells xenografted in BALB/c nude mouse at 10 mg/kg, ip bid treated for 21 days in presence of SAHA relative to control; type: functional; details: time 21 day
NCI-H2228 [8] = assay: Antiproliferative activity against human NCI-H2228 cells incubated for 24 hrs in presence of SAHA by MTT assay; type: functional, cell-based; details: NCI-H2228, 24 h
NCI-H1975 [9] = assay: Inhibition of cell migration in human NCI-H1975 cells measured after 24 to 48 hrs in presence of SAHA by wound healing assay relative to control; type: functional; details: time 24-48 hrs
NCI-H2228 [10] = assay: Antiproliferative activity against human NCI-H2228 cells incubated for 24 hrs by MTT assay; type: functional, cell-based; details: NCI-H2228, 24 h
PC-3 = assay: Antiproliferative activity against human PC-3 cells incubated for 24 hrs in presence of SAHA by MTT assay; type: functional, cell-based; details: PC-3, 24 h
Huh-7 [11] = assay: Antiproliferative activity against human Huh-7 cells incubated for 24 hrs by MTT assay; type: functional, cell-based; details: Huh-7, 24 h
Huh-7 [12] = assay: Antiproliferative activity against human Huh-7 cells incubated for 24 hrs in presence of SAHA by MTT assay; type: functional, cell-based; details: Huh-7, 24 h
NCI-H1975 [13] = assay: Induction of DNA damage in human NCI-H1975 cells assessed as DNA tail formation at 8 uM incubated for 48 hrs by Comet assay relative to control; type: functional
[14] = Toxicity BALB/c nude mouse xenografted with human NCI-H1975 cells assessed as body weight loss at 100 mg/kg, po qd in presence of Irinotecan treated for 21 days (Rvb > 11.5 %); type: organism-based; details: in vivo, 504 h, time 21 day
NCI-H1975 [15] = assay: Induction of cell cycle arrest in human NCI-H1975 cells assessed as accumulation at G2/M phase at 4 uM incubated for 48 hrs by PI staining based flow cytometry relative to control; type: functional
NCI-H1975 [16] = assay: Induction of cell cycle arrest in human NCI-H1975 cells assessed as accumulation at G2/M phase at 4 uM incubated for 48 hrs in presence of Irinotecan by PI staining based flow cytometry relative to control; type: functional
NCI-H1975 [17] = assay: Induction of apoptosis in human NCI-H1975 cells at 4 uM incubated for 24 hrs in presence of Irinotecan by Annexin V-FITC/PI staining based flow cytometry relative to control; type: functional
NCI-H1975 [18] = assay: Induction of apoptosis in human NCI-H1975 cells at 4 uM incubated for 24 hrs by Annexin V-FITC/PI staining based flow cytometry relative to control; type: functional

CCc1c2c(nc3ccc(OC(=O)N4CCC(N5CCCCC5)CC4)cc13)-c1cc3c(c(=O)n1C2)COC(=O)[C@]3(O)CC [IRINOTECAN]
IC50 (HCT-116): 730 nM | inhibition (INH) (NCI-H1975 [1]): 61.8% | IC50 (MDA-MB-231 [2]): > 8000 nM | IC50 (MCF7): 970 nM | IC50 (MDA-MB-231 [3]): 1340 nM | Activity [4]: 22.4% | Activity (NCI-H1975 [5]): 35% | Activity (NCI-H1975 [6]): 56.1% | inhibition in vivo at 10 mg/kg (NCI-H1975 [7]; Mus musculus, NCI-H1975, 504 h, read-out: TGI): 65.8% | T/C (NCI-H1975 [7]): 39.1% | IC50 (NCI-H2228 [8]): 1450 nM | inhibition (INH) (NCI-H1975 [9]): 40.7% | IC50 (NCI-H2228 [10]): 3480 nM | IC50 (PC-3): 1240 nM | IC50 (Huh-7 [11]): > 8000 nM | IC50 (Huh-7 [12]): 1790 nM

O=C(CCCCCCC(=O)Nc1ccccc1)NO [VORINOSTAT]
Activity (NCI-H1975 [13]): 19.4% | Activity [14]: 22.4% | Activity (NCI-H1975 [15]): 30.4% | Activity (NCI-H1975 [16]): 35% | Activity (NCI-H1975 [17]): 56.1% | Activity (NCI-H1975 [18]): 46%
